Data as given in patent US20110262355A1, “COMPOSITIONS COMPRISING ENZYME-CLEAVABLE OPIOID PRODRUGS AND INHIBITORS THEREOF” (priority 2010, published 2011).
Like-named read-outs stand apart in the source and are kept apart here.

Key:
[1] = male, Sprague Dawley, rat, in vivo
human μ-opioid receptor [2] = biological target: T1, human μ-opioid receptor (Homo sapiens, UniProt P35372); assay: cell-based; design: expressed in transfected cells; host or cells: CHO; conditions: agonist response, cAMP (HTRF); recombinant CHO cells; 37° C., 10 min; three separate experiments
T1 sequence (P35372 whole entry): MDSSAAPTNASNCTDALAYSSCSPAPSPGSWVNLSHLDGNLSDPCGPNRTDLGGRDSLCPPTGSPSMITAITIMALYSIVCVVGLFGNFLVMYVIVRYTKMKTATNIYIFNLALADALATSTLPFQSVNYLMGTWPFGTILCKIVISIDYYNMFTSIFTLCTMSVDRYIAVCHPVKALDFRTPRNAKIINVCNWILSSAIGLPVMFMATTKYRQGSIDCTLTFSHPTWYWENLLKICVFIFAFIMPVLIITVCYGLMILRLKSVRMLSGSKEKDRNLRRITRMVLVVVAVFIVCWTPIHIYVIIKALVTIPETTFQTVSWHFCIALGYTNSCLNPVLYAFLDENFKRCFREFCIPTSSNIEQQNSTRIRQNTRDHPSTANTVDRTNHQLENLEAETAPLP
Protocol: This Example measures the ability of certain compounds of the present disclosure to effect an agonist response when exposed to recombinant human μ-opioid receptor expressed in CHO cells.
A. and Uhl, G. R. (1994). […] The control reaction included 1 μM DAMGO. The reaction mixtures were incubated at 37° C. for 10 min, and the reaction product was cyclic AMP (cAMP). The samples were submitted to homogeneous time resolved fluorescence (HTRF®). EC50 values (concentration producing a half-maximal specific response) were determined by non-linear regression fit using the Hillplot software.

human μ-opioid receptor [3] = biological target: T1, human μ-opioid receptor; assay: In vitro human μ-opioid receptor binding assay
trypsin [4] = biological target: T2, trypsin (Bos taurus, UniProt P00760); assay: In vitro trypsin-mediated release of oxycodone from Compound KC-2, without or with Compound 109; assay type: biochemical, bovine; design: purchased Sigma-Aldrich T8003; host or cells: bovine pancreas; conditions: bovine, trypsin from bovine pancreas, read-out: Pro-drug trypsin half-life, h Average ± sd (converted)
T2 sequence (P00760 24-246): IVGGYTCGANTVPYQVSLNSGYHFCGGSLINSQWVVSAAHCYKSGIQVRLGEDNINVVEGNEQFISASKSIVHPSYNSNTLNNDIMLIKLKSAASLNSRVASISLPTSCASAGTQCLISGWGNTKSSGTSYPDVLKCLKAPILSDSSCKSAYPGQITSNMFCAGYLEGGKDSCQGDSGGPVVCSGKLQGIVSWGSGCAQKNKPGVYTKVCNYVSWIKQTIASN
Source text: (§1) The square symbols indicate the disappearance of Compound KC-2, and the triangle symbols depict the appearance of oxycodone, over time under the conditions described in this Example.

[5] = biological target: T3, trypsin from bovine pancreas (Bos taurus, UniProt P00760); assay: as above; assay type: biochemical; design: purchased Sigma-Aldrich T8003; host or cells: bovine pancreas; conditions: 0.761 mM KC-2; 0.0228 mg/mL trypsin; 37° C.; no trypsin inhibitor
T3 sequence (P00760 24-246): T2 sequence (P00760 24-246)
Source text: as §1

[6] = Pharmacokinetics of oxycodone prodrug Compound KC-2 or oxycodone following PO administration to rats; assay type: in vivo; conditions: rat, KC-2 20 mg/kg vs oxycodone 10 mg/kg
[7] = In vitro stability of Compound KC-2 to household chemicals and enzyme preparations; assay type: physicochemical; conditions: vodka, baking soda, WINDEX, vinegar (RT or 80° C.), GNC Super Digestive, tenderizer, subtilisn (RT); 1 or 24 hr
Protocol: Samples were incubated as described and aliquots removed at 1 hr and 24 hr and stabilized by adding each to a solution of 50% or 100% of 85% phosphoric acid solution to achieve a final pH of less than or equal to pH 4. The stabilized aliquots were then diluted 4- to 6-fold with water, vortex-mixed and applied to HPLC.

trypsin [8] = biological target: T2, trypsin; assay: In vitro trypsin-mediated release of drug from ketone-modified opioid prodrugs KC-3 to KC-6, effect of Compound 109; conditions: bovine, trypsin from bovine pancreas, h Average ± sd
Source text: (§2) Other reaction and sample treatment conditions were as described above.

[9] = biological target: T3, trypsin from bovine pancreas; assay: as above; conditions: 0.761 mM prodrug, 37° C., no trypsin inhibitor
Source text: as §2

[10] = male, Sprague Dawley, rat, in vivo; remark: listed apart in the source
[11] = In vitro stability of Compound KC-3 to household chemicals and enzyme preparations; assay type: physicochemical; conditions: vodka, baking soda, WINDEX, vinegar (RT or 80° C.), GNC Super Digestive, tenderizer, subtilisn (RT); 1 or 24 hr
Protocol: Samples were incubated as described. Aliquots were removed at 1 hr and 24 hr and stabilized by adding each to a solution of 50% or 100% of 85% phosphoric acid solution to achieve a final pH of less than or equal to pH 4. The stabilized aliquots were then diluted 4- to 6-fold with water, vortex-mixed and applied to HPLC.

[12] = In vivo tolerability of Compound KC-3 in rats (IV); conditions: rat, Compound KC-3 97 μmol/kg, tolerated
Protocol: Male naïve Sprague-Dawley rats, 4 per dose, were used in the study. Rats were weighed, and then placed under a heat lamp for 15-20 minutes to dilate the lateral tail veins. […] Before dosing, rats were placed in Broome restrainers and the drug was introduced into one of the tail veins using a syringe and needle. […] Blood samples were collected 5 minutes post-dose via the saphenous vein. The rats were observed up to 24 hours.

[13] = rat
[14] = Pharmacokinetics of Compound KC-5 following PO administration to rats; conditions: rat; PO Compound KC-5
[15] = Pharmacokinetics of Compound KC-6 following PO administration to rats; conditions: rat; PO Compound KC-6
[16] = male, Sprague Dawley, rat, in vivo; remark: listed apart in the source
[17] = HM in rat plasma, PO, PC-4 20 mg/kg
[18] = biological target: T3, trypsin from bovine pancreas; assay: In vitro trypsin conversion of prodrugs to hydromorphone and inhibition by trypsin inhibitor; conditions: with trypsin inhibitor 3,089 uM Compound 109
Protocol: The reactions were conducted at 37° C. for 24 hr. Samples were collected at specified time points, transferred into 0.5% formic acid in acetonitrile to stop trypsin activity and stored at less than −70° C. until analysis by LC-MS/MS.
The results are expressed as half-life of prodrug when exposed to trypsin (i.e., Prodrug trypsin half-life) in hours and rate of formation of HM per unit of trypsin.

[19] = Oral administration of Compound PC-4 and SBTI trypsin inhibitor to rats; conditions: HM in rat plasma, PC-4 20 mg/kg
[20] = pH 8, Pro-drug trypsin half-life, 0.761 mM prodrug, 241 BAEE U trypsin/mL, 37° C., no trypsin inhibitor
[21] = male, Sprague Dawley, in vivo, iv, 10 mg/kg

## COc1ccc2c3c1O[C@H]1C(OC(=O)N(C)CCNC(=O)[C@H](CCCNC(=N)N)NC(C)=O)=CC[C@@]4(O)[C@@H](C2)N(C)CC[C@]314 [Compound KC-2, Oxycodone 6-(N-methyl-N-(2-N′-acetylarginylamino))ethylcarbamate]
[1]
  Compound conc. in CSF: 61.9 ng/mL
  Compound conc. in Plasma: 27,200 ng/mL
  Plasma/CSF partitioning coefficient: 439
Human μ-opioid receptor [2]
  EC50: 490 nM
Human μ-opioid receptor [3]
  IC50: 22 nM
Trypsin [4]; pH 8, with Compound 109 (trypsin inhibitor) 2 µM ([…])
  half-life at 0.761 mM: 116 ± 118 h
Trypsin [4]; pH 8, 0.761 mM KC-2, 0.0228 mg/mL trypsin, 37° C., no trypsin inhibitor
  half-life at 0.761 mM: 5.64 ± 0.26 h
[5]
  Rate of oxycodone formation, umols/h/umol trypsin Average ± sd: 37.4 ± 0.9 umols/h/umol trypsin
[6]
  oxycodone plasma concentrations compared to administration of oxycodone: suppressed Cmax and delayed Tmax compared to administration of oxycodone
[7]
  conversion to oxycodone: less than 10%

## COc1ccc2c3c1O[C@H]1C(OC(=O)N(C)CCNC(=O)[C@H](CCCNC(=N)N)NC(=O)CC(=O)O)=CC[C@@]4(O)[C@@H](C2)N(C)CC[C@]314 [Compound KC-3, N-{(S)-4-guanidino-1-[2-(methyl-[(5R,9R,13S,14S)-4,5a-epoxy-6,7-didehydro-14-hydroxy-3-methoxy-17-methylmorphinan-6-oxy]carbonyl-amino)-ethylcarbamoyl]-butyl}-malonamic acid]
Trypsin [8]; [20]
  half-life at 0.761 mM: 8.92 ± 1.91 h
Trypsin [8]; pH 8, with Compound 109 (trypsin inhibitor), 2 µM, Pro-drug trypsin half-life, with trypsin inhibitor Compound 109 2 uM
  half-life at 0.761 mM: 43.3 ± 40.6 h
[9]; 241 BAEE U trypsin/mL
  Rate of oxycodone formation, umol/h/BAEE U Average ± sd: 0.0684 ± 0.0009 umol/h/BAEE U
[10]
  Compound conc. in CSF: 34.1 ng/mL
  Compound conc. in Plasma: 59,225 ng/mL
  Plasma/CSF partitioning coefficient: 1,737
[11]
  conversion to oxycodone: less than 10%
Human μ-opioid receptor [2]
  EC50: 1600 nM
[12]
  time to recover to normal activity: ≤ 2 min

## COc1ccc2c3c1O[C@H]1C(OC(=O)N(CCCCCC(=O)O)CCNC(=O)[C@H](CCCNC(=N)N)NC(C)=O)=CC[C@@]4(O)[C@@H](C2)N(C)CC[C@]314 [Compound KC-5, 6-{[2-(2-Acetylamino-5-guanidino-pentanoylamino)-ethyl]-[(5R,9R,13S,14S)-4,5a-epoxy-6,7-didehydro-14-hydroxy-3-methoxy-17-methylmorphinan-6-oxy]-1-enyloxycarbonyl-amino}-hexanoic acid]
Trypsin [8]; [20]
  half-life at 0.761 mM: 1.2 ± 0.04 h
[9]; 241 BAEE U trypsin/mL
  Rate of oxycodone formation, umol/h/BAEE U Average ± sd: 0.135 ± 0.005 umol/h/BAEE U
[13]; male, Sprague Dawley, in vivo
  plasma/CSF partitioning coefficient: 1,508
[13]; [21]
  Compound conc. in CSF: 36.4 ng/mL
  Compound conc. in Plasma: 54,900 ng/mL
  Plasma/CSF partitioning coefficient: 1,508
[13]; IV, 1,508/4.8
  relative plasma/CSF partitioning coefficient of prodrug to oxycodone (fold less CSF penetrant): about 316 fold
[14]
  oxycodone plasma concentrations compared to administration of oxycodone: suppressed Cmax and AUC and delayed Tmax compared to administration of oxycodone
Human μ-opioid receptor [2]
  EC50: 2000 nM

## COc1ccc2c3c1O[C@H]1C(OC(=O)N(C)C[C@H](NC(=O)[C@H](CCCNC(=N)N)NC(C)=O)C(=O)N(C)CC(=O)O)=CC[C@@]4(O)[C@@H](C2)N(C)CC[C@]314 [Compound KC-6, ({(S)-2-((S)-2-Acetylamino-5-guanidino-pentanoylamino)-3-[(oxycodone-enyloxycarbonyl)-methyl-amino]-propionyl]-methyl-amino)-acetic acid]
[9]; 241 BAEE U trypsin/mL
  Rate of oxycodone formation, umol/h/BAEE U Average ± sd: 0.0118 ± 0.0042 umol/h/BAEE U
[9]; 4815 BAEE U trypsin/mL
  Rate of oxycodone formation, umol/h/BAEE U Average ± sd: 0.00571 ± 0.0002 umol/h/BAEE U
[15]
  oxycodone plasma concentrations compared to administration of oxycodone: suppressed Cmax and AUC and delayed Tmax compared to administration of oxycodone
Human μ-opioid receptor [2]
  EC50: 1800 nM
[16]
  Compound conc. in CSF: 74.1 ng/mL
  Compound conc. in Plasma: 60,400 ng/mL
  Plasma/CSF partitioning coefficient: 815
  plasma/CSF partitioning coefficient: 815

## CCN(CCNC(=O)[C@H](CCCNC(=N)N)NC(C)=O)C(=O)Oc1ccc2c3c1OC1C(=O)CCC4C(C2)N(C)CCC314 (stereo partly drawn) [Compound PC-4, [2-((S)-2-Acetylamino-5-guanidino-pentanoylamino)-ethyl]-ethyl-carbamic acid hydromorphone ester]
[17]; Compound 101 0 mg/kg, 7 rats
  Cmax (ng/mL HM): 7.7 ± 2.3 ng/mL
  Tmax: 2.3 h
[17]; Compound 101 10 mg/kg, 4 rats
  Cmax (ng/mL HM): 4.8 ± 1.4 ng/mL
  Tmax: 6.0 h
[18]
  Rate of HM formation, umols/h/umol trypsin Average ± sd: 3.27 ± 1.87 umols/h/umol trypsin
[19]; SBTI 0 mg/kg, 7 rats
  Cmax (ng/mL HM): 7.7 ± 2.3 ng/mL
  Tmax: 2.3 h
[19]; SBTI 500 mg/kg, 4 rats
  Cmax (ng/mL HM): 7.5 ± 2.1 ng/mL
  Tmax: 6.5 h
